Reference: US20250206761A1, “HALOINDOLE MACROCYCLIC COMPOUNDS FOR THE TREATMENT OF CANCER” (Hoffmann-La Roche Inc., priority 2022, published 2025)

Legend:
[1] = target: KRAS G12D binding to BRAF (Homo sapiens (Human), UniProt P01116+P62937, G12D); assay: KRAS-BRAF with CYPA (500 nM) interaction assay (TR-FRET), G12D; format: biochemical
KRAS G12C-BRAF complex = KRAS G12C-BRAF complex (Homo sapiens (Human), UniProt P01116+P62937, G12C); assay: KRAS-BRAF with CYPA (500 nM) interaction assay (TR-FRET), G12C; format: biochemical
Sequence of KRAS G12C-BRAF complex (P01116-2 other isoform, or with tags, fused parts or gaps G12C): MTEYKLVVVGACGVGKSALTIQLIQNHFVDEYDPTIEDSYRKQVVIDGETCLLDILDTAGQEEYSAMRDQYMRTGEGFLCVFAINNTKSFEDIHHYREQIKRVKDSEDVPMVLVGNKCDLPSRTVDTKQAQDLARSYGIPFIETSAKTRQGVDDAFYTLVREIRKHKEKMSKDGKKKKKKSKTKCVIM
Sequence of KRAS G12C-BRAF complex (P62937 whole entry): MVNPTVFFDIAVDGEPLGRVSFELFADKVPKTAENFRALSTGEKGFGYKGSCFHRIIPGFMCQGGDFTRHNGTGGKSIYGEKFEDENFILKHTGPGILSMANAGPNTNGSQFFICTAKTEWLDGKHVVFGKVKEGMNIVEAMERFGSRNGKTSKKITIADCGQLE

SW620 (ATCC-CCL-227) = assay: Cell viability assay, G12V (SW620); format: cell-based, human; conditions: Homo sapiens, SW-620; KRAS cell viability, SW620, 72 hrs, Cell Counting Kit-8
Procedure, shortened: (§1)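 IC50 derived by 4-parameter sigmoidal fit of CCK-8 signal (OD450−OD650, 2 h development) after 72 h compound exposure in 0.5% DMSO. Seeding density was 5,000 cells/well for NCI-H358 and 2,000 cells/well for AGS and SW620, plated overnight before dosing.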

[2] = tested on: phosphorylation of ERK, KRAS G12D in AGS cells; assay: pERK inhibition assay, KRAS G12D; format: cell-based, human; conditions: Homo sapiens, 4 hours
Procedure, shortened: (§2)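 Plate cells, attach overnight; add compound (0.5% DMSO) for 4 h; fix in 4% formaldehyde, permeabilize with chilled methanol; block; incubate pERK antibody overnight at 4 °C, then HRP secondary; develop with TMB, stop, read OD450; fit 4-parameter curve for IC50.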

[3] = tested on: phosphorylation of ERK, KRAS G12C in NCJ-H358 cells; assay: pERK inhibition assay, KRAS G12C; format: cell-based, human; conditions: Homo sapiens, 4 hours
Procedure, shortened: as §2

[4] = tested on: NCI-H358 (ATCC-CRL5807) cells; assay: Cell viability assay, G12C (NCI-H358); format: cell-based, human; conditions: Homo sapiens; KRAS cell viability, NCI-H358, 72 hrs, Cell Counting Kit-8
Procedure, shortened: as §1

Sequence of KRAS G12D binding to BRAF (P01116-2 other isoform, or with tags, fused parts or gaps G12D): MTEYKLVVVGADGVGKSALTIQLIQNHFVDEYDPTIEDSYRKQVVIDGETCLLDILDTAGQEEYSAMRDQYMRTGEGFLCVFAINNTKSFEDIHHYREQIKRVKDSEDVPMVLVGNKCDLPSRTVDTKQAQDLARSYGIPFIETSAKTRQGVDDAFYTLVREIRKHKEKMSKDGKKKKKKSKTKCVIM
Sequence of KRAS G12D binding to BRAF (P62937 whole entry): as the sequence (P62937 whole entry) above

Compound	IC50 [1] [nM]	IC50 (KRAS G12C-BRAF complex) [nM]	IC50 (SW620 (ATCC-CCL-227)) [nM]	IC50 [2] [nM]	IC50 [3] [nM]	IC50 [4] [nM]
CO[C@@H](C)c1ncc(N2CCN(C)CC2)cc1-c1c2c3cc(c(F)cc3n1CC(F)(F)F)-c1cc(O)cc(c1)C[C@H](NC(=O)[C@H](C(C)C)N(C)C(=O)[C@H]1CCN(C(=O)[C@H](F)Cl)C1)C(=O)N1CCC[C@H](N1)C(=O)OCC(C)(C)C2 (atropisomer, axis not shown; (M)) [Example 8, (3S)-1-[(2R)-2-chloro-2-fluoro-acetyl]-N-[(1S)-1-[[(8S,14S)-25-fluoro-4-hydroxy-(21M)-21-[2-[(1S)-1-methoxyethyl]-5-(4-methylpiperazin-1-yl)-3-pyridyl]-18,18-dimethyl-9,15-dioxo-22-(2,2,2-trifluoroethyl)-16-oxa-10,22,28-triazapentacyclo[18.5.2.1^2,6.1^10,14.0^23,27]nonacosa-1(26),2,4,6(29),20,23(27),24-heptaen-8-yl]carbamoyl]-2-methyl-propyl]-N-methyl-pyrrolidine-3-carboxamide]	85	3	175	90	2	3
CO[C@@H](C)c1ncc(N2CCN(C)CC2)cc1-c1c2c3cc(c(C)cc3n1CC(F)(F)F)-c1csc(n1)C[C@H](NC(=O)[C@H](C(C)C)N(C)C(=O)C1(F)CCN(C(=O)[C@H](F)Cl)CC1)C(=O)N1CCC[C@H](N1)C(=O)OCC(C)(C)C2 (atropisomer, axis not shown; (M)) [Example 9, 1-[(2R)-2-chloro-2-fluoro-acetyl]-4-fluoro-N-[(1S)-1-[[(7S,13S)-(20M)-20-[2-[(1S)-1-methoxyethyl]-5-(4-methylpiperazin-1-yl)-3-pyridyl]-17,17,24-trimethyl-8,14-dioxo-21-(2,2,2-trifluoroethyl)-15-oxa-4-thia-9,21,27,28-tetrazapentacyclo[17.5.2.1^2,5.1^9,13.0^22,26]octacosa-1(25),2,5(28),19,22(26),23-hexaen-7-yl]carbamoyl]-2-methyl-propyl]-N-methyl-piperidine-4-carboxamide]	> 10000	176	28	23	3	7
CO[C@@H](C)c1ncc(N2CCN(C)CC2)cc1-c1c2c3cc(c(F)cc3n1CC(F)(F)F)-c1csc(n1)C[C@H](NC(=O)[C@H](C(C)C)N(C)C(=O)C1(F)CCN(C(=O)[C@H](F)Cl)CC1)C(=O)N1CCC[C@H](N1)C(=O)OCC(C)(C)C2 (atropisomer, axis not shown; (M)) [Example 10, 1-[(2R)-2-chloro-2-fluoro-acetyl]-4-fluoro-N-[(1S)-1-[[(7S,13S)-24-fluoro-(20M)-20-[2-[(1S)-1-methoxyethyl]-5-(4-methylpiperazin-1-yl)-3-pyridyl]-17,17-dimethyl-8,14-dioxo-21-(2,2,2-trifluoroethyl)-15-oxa-4-thia-9,21,27,28-tetrazapentacyclo[17.5.2.1^2,5.1^9,13.0^22,26]octacosa-1(25),2,5(28),19,22(26),23-hexaen-7-yl]carbamoyl]-2-methyl-propyl]-N-methyl-piperidine-4-carboxamide]	964	20	8	16	< 1	< 1
CO[C@@H](C)c1ncc(N2CCN(C)CC2)cc1-c1c2c3cc(c(F)cc3n1CC(F)(F)F)-c1csc(n1)C[C@H](NC(=O)[C@H](C(C)C)N1CCCC3(CN(C(=O)[C@H](F)Cl)C3)C1=O)C(=O)N1CCC[C@H](N1)C(=O)OCC(C)(C)C2 (atropisomer, axis not shown; (M)) [Example 11, (2S)-2-[2-[(2R)-2-chloro-2-fluoro-acetyl]-5-oxo-2,6-diazaspiro[3.5]nonan-6-yl]-N-[(7S,13S)-24-fluoro-(20M)-20-[2-[(1S)-1-methoxyethyl]-5-(4-methylpiperazin-1-yl)-3-pyridyl]-17,17-dimethyl-8,14-dioxo-21-(2,2,2-trifluoroethyl)-15-oxa-4-thia-9,21,27,28-tetrazapentacyclo[17.5.2.1^2,5.1^9,13.0^22,26]octacosa-1(25),2,5(28),19,22(26),23-hexaen-7-yl]-3-methyl-butanamide]	> 10000	45	29	27	< 1	< 1
CO[C@@H](C)c1ncc(N2CCN(C)CC2)cc1-c1c2c3c(F)c(ccc3n1CC(F)(F)F)-c1csc(n1)C[C@H](NC(=O)[C@H](C(C)C)N1CCCC3(CCN(C(=O)[C@H](F)Cl)CC3)C1=O)C(=O)N1CCC[C@H](N1)C(=O)OCC(C)(C)C2 (atropisomer, axis not shown; (M)) [Example 20, (2S)-2-[9-[(2R)-2-chloro-2-fluoro-acetyl]-1-oxo-2,9-diazaspiro[5.5]undecan-2-yl]-N-[(7S,13S)-25-fluoro-(20M)-20-[2-[(1S)-1-methoxyethyl]-5-(4-methylpiperazin-1-yl)-3-pyridyl]-17,17-dimethyl-8,14-dioxo-21-(2,2,2-trifluoroethyl)-15-oxa-4-thia-9,21,27,28-tetrazapentacyclo[17.5.2.1^2,5.1^9,13.0^22,26]octacosa-1(25),2,5(28),19,22(26),23-hexaen-7-yl]-3-methyl-butanamide]	1240	148	66	98	5	3
CCn1c(-c2cc(N3CCN(CC(F)(F)F)CC3)cnc2[C@H](C)OC)c2c3cc(c(F)cc31)-c1csc(n1)C[C@H](NC(=O)[C@H](C(C)C)N1CCC3(CN(C(=O)[C@H](F)Cl)C3)C1=O)C(=O)N1CCC[C@H](N1)C(=O)OCC(C)(C)C2 (atropisomer, axis not shown; (M)) [Example 37, (2S)-2-[2-[(2R)-2-chloro-2-fluoro-acetyl]-5-oxo-2,6-diazaspiro[3.4]octan-6-yl]-N-[(7S,13S)-21-ethyl-24-fluoro-(20M)-20-[2-[(1S)-1-methoxyethyl]-5-[4-(2,2,2-trifluoroethyl)piperazin-1-yl]-3-pyridyl]-17,17-dimethyl-8,14-dioxo-15-oxa-4-thia-9,21,27,28-tetrazapentacyclo[17.5.2.1^2,5.1^9,13.0^22,26]octacosa-1(25),2,5(28),19,22(26),23-hexaen-7-yl]-3-methyl-butanamide]	964	39	114		3	< 1
CCn1c(-c2cc(N3CCN(CC(F)(F)F)CC3)cnc2[C@H](C)OC)c2c3cc(c(F)cc31)-c1csc(n1)C[C@H](NC(=O)[C@H](C(C)C)N(C)C(=O)C1(F)CCN(C(=O)[C@H](F)Cl)CC1)C(=O)N1CCC[C@H](N1)C(=O)OCC(C)(C)C2 (atropisomer, axis not shown; (M)) [Example 49, 1-[(2R)-2-chloro-2-fluoro-acetyl]-N-[(1S)-1-[[(7S,13S)-21-ethyl-24-fluoro-(20M)-20-[2-[(1S)-1-methoxyethyl]-5-[4-(2,2,2-trifluoroethyl)piperazin-1-yl]-3-pyridyl]-17,17-dimethyl-8,14-dioxo-15-oxa-4-thia-9,21,27,28-tetrazapentacyclo[17.5.2.1^2,5.1^9,13.0^22,26]octacosa-1(25),2,5(28),19,22(26),23-hexaen-7-yl]carbamoyl]-2-methyl-propyl]-4-fluoro-N-methyl-piperidine-4-carboxamide]	444	15	42	65	3	< 1
CCn1c(-c2cc(N3CCOCC3)cnc2[C@H](C)OC)c2c3cc(c(F)cc31)-c1csc(n1)C[C@H](NC(=O)[C@H](C(C)C)N1CC[C@]3(CCN(C(=O)[C@H](F)Cl)C3)C1=O)C(=O)N1CCC[C@H](N1)C(=O)OCC(C)(C)C2 (atropisomer, axis not shown; (M)) [Example 51, (2S)-2-[(5S)-7-[(2R)-2-chloro-2-fluoro-acetyl]-1-oxo-2,7-diazaspiro[4.4]nonan-2-yl]-N-[(7S,13S)-21-ethyl-24-fluoro-(20M)-20-[2-[(1S)-1-methoxyethyl]-5-morpholino-3-pyridyl]-17,17-dimethyl-8,14-dioxo-15-oxa-4-thia-9,21,27,28-tetrazapentacyclo[17.5.2.1^2,5.1^9,13.0^22,26]octacosa-1(25),2,5(28),19,22(26),23-hexaen-7-yl]-3-methyl-butanamide]	> 10000	74	52	62	2	< 1
CC(C)[C@@H](C(=O)N[C@H]1Cc2cc(O)cc(c2)-c2ccc3c(C(C)(C)C#N)cn(c3c2)CC(C)(C)COC(=O)[C@@H]2CCCN(N2)C1=O)N1CCCC2(CCN(C(=O)CCl)C2)C1=O (stereo partly drawn) [RM351, reference compound]	> 10000	> 10000		> 10000	356	
